Assay results taken from patent US20200299155A1, “BIOCIDAL COMPOSITIONS INCLUDING A PHOSPHONIUM QUATERNARY CATIONIC SURFACTANT AND METHODS FOR USING SAME” (Rhodia Operations, priority 2019, published 2020).

Experiments:
[1] = Physical compatibility studies (mixtures in vials, visual); type: physicochemical; conditions: for compatibility with VDPA copolymer: in the presence of VDPA copolymer
Experimental: A first set of samples was made by combining Didecyldimethylammonium chloride (DDAC) Ammonium Quaternary Cationic Surfactant, and Tributyl Tetradecyl Phosphonium Chloride (TTPC). These ingredients were combined in a 20 mL borosilicate vial with a plastic cap to a total volume of 10 mLs so that the final concentration of DDAC was 5 wt. % active ingredient and the final concentration of TTPC was 1 wt. % active ingredient. The total volume was achieved by mixing with tap water (WTW). Samples were mixed, capped, and shaken vigorously and allowed to sit at room temperature for up to 24 hours. […] All weight percent values in the examples are wt. % active ingredient.
Another test sample consisted of 20 wt. % THPS, 2 wt. % VDPA copolymer biopenetrant, 4 wt. % DDAC, 4 wt. % TTPC, and 35 wt. % Ethylene Glycol Monobutyl Ether (EGMBE, which was used as a mutual solvent) (wt. % active ingredients) and was mixed as were the samples of Example 1 and brought to a total volume of 13.9 mLs with tap water (WTW).
(§1) Two additional samples were made. One was TTPC aqueous solution (50 wt. % a.i.) which was TTPC alone with the balance water (labelled TTPC). The other sample was made of 95 wt. % TTPC aqueous solution (50 wt. % a.i.) combined with a 5 wt. % VDPA copolymer aqueous solution (50 wt. % a.i.)(labelled TTPC+ESL). Thus, the final concentration on an active ingredient basis was 47.5% wt. % TTPC and 2.5 wt. % VDPA copolymer with the balance water. This comparison was made to determine the compatibility of the mixture without mutual solvent.

[2] = Storage stability of TTPC+ESL mixture at different temperatures; type: physicochemical; conditions: −25° C.
Excerpt: as §1
However, the sample was frozen at −25° C. TTPC was also frozen at −25 C.

[3] = system: Pseudomonas aeruginosa; test: Biocidal efficacy study, Modified Robbins Device culture/biofilm; type: cell-based; conditions: 100 ppm dosed, FIG. 4
Experimental: To test biocidal efficacy of TTPC in the presence of VDPA anionic copolymer two additional samples were made. One was 50 wt. % TTPC (a.i.) alone with the balance water (labelled TTPC). The other was TTPC combined with VDPA copolymer with the balance water (labelled TTPC A) which was 47.5% TTPC (a.i.) and 2.5% VDPA copolymer biopenetrant. A standard biofilm was grown with Pseudomonas aeruginosa, a known biofilm former and General Heterotrophic Bacteria (GHB), and treated with either the TTPC or TTPC A Series samples. Pseudomonas aeruginosa was cultured in a media of tryptone soy broth and grown at room temperature with gentle stirring. This culture solution was slowly passed through a Modified Robbins Device (MRD) from Tyler Research for approximately 6 weeks to establish a robust biofilm. Once the film was established, 100 ppm of TTPC Series or TTPC A Series was dosed to the biofilms and the efficacy of the biocide on the microorganisms was measured as shown in FIG. 4.

state of sample at low temperature [2]	Compound	physical compatibility / appearance in tap water ([1]; balance tap water (WTW), room temperature, up to 24 hours)	compatibility with VDPA copolymer [1]	solubility in water ([1]; water)	efficacy against planktonic bacteria [3]
	CCCCCCCCCC[N+](C)(C)CCCCCCCCCC.[Cl-] [DDAC, Didecyldimethylammonium chloride]	some cloudiness	will precipitate	sparingly soluble in water	
frozen	CCCCCCCCCCCCCC[P+](CCCC)(CCCC)CCCC.Cl [TTPC, tributyl-tetradecylphosphonium chloride]				effective
	alkyldimethylbenzylammonium chloride [ADBAC]		will precipitate		
